The nature of assay [1]: 60 Day feeding study, cattle performance. The assay is classed as in vivo, cattle (crossbred steers). The text has this:
(§1) Feeding trials were completed with a randomized block design utilizing 4 treatments and 13 replicates per treatment. The first 20 pens (block 1, 5 replicates per treatment group) were placed first, the second 20 pens (block 2, 5 replicates per treatment group) were placed […], and the last 12 pens (block 3, 3 replicates per treatment group) were placed last. All cattle were housed within one area of the feedyard.
(§2) Crossbred steers (n=4,849) with an average weight of 590 kg+/−19.7 kg of various origins from the High Plains and Midwest were selected from within a northwest Kansas commercial feedyard. All cattle underwent the same receiving protocol and were placed in 200 head pens. All cattle were acclimated to feedlot rations and had been on feed a minimum of 60 days prior to trial enrollment. Starting rations during the initial 60 days included 75 mg/head/day tylosin (Tylan, Elanco Animal Health, Greenfield, Ind.) with 15 g/ton monensin (Rumensin, Elanco Animal Health, Greenfield, Ind.).
(§3) At 60 days of feed, 2-200 head pens were systematically allocated to 4 pens of 100 head. Two pens of 200 head were sorted at the chute into 4-100 head pens at time of terminal implant. Each 200 head pen contributed 50 head to each of the 4 pens that would be eventually allocated to treatment. This was accomplished by systematic allocation of 5 head at a time to each of the trial pens. If 200 head counts were not exactly 100 head/pen, the final allocations were that the number of animals per treatment group were similar. Once the 4-100 head pens (1 replicate) were sorted, the pens of cattle were weighed by pen, a 4% pencil shrink was applied, and pens were randomly assigned to 1 of 4 treatments: (1) Positive control (MT) 75 mg/head/day tylosin (Tylan,® Elanco Animal Health, Greenfield, Ind.) and 185 mg/head/day monensin (Rumensin,® Elanco Animal Health, Greenfield, Ind.); (2) Negative control (NO MT) fed without Rumensin® or Tylan®; (3) Decoquinate (DECO) fed 275 to 325 mg/head/day (Deccox,® Zoetis, Parsippany, N.J.); or (4) 3 g/head/day Yucca schidigera (YS) (Micro-Aid,® DPI Global, Porterville, Calif.). All cattle received an identification tag specific to the trial. Caretakers and processing staff were blinded to treatment.
All treatment groups received the same base ration (Table 1) that was balanced to provide 14% crude protein DM, […] NEg (Table 1). Rations were prepared using a stationary batcher box (Feeding Systems, Inc., Columbus, Nebr.) and loaded onto mixer/delivery trucks with box-mounted scale (Rotomix Manufacturing, Dodge City, Kans.). Treatment rations were delivered twice daily (0800 and 1300) on separate trucks to prevent cross contamination of treatment rations.
Data on cattle performance were derived from feedlot closeout reports after all pens of cattle were shipped to an abattoir. Daily dry matter intakes were recorded via bunk management personnel and entered into the computerized bunk management system. The average dry matter intake per pen over the 60-day period was retrieved from closeout data. Final body weight was calculated as (carcass weight/0.64). Average daily gain (ADG) was calculated on a pen basis using the equation ((Final body weight−Initial body weight)/days on feed). Feed conversion was calculated by dividing the […], then carcass adjusted G:F was calculated as the reciprocal of feed conversion.
Continuous variables were analyzed using PROC Glimmix (SAS 9.4, SAS Inst. Inc., Cary, N.C.). Models contained treatment as a fixed effect, block as a random effect, and pen as the experimental unit. Least squares means were compared using the PDIFF function of SAS and the Tukey-Kramer adjustment for multiple comparisons. Statistical significance was determined at P<0.05 with tendencies at 0.06>P<0.10. Liver abscess scores, yield grade, and incidence of Eimeria spss. were converted to pen level frequency percentages prior to analysis. […]

A short description of assay [2]: 60 Day feeding study, carcass characteristics. Format: in vivo, cattle (crossbred steers). The note with it: 60 day study.
Text: as §1, §2, §3
(§4) At 60±4 days of feed, all pens of cattle were shipped to the same abattoir. Hot carcass weight was collected from the plant via scale on carcass rail. Liver abscess scores were assessed by USDA trained professionals and data were collected by third party trained professionals using the liver scoring system previously described by Brown et al. (1975): 0=no abscesses, A−=2-4 abscesses under 1 inch in diameter, A=1-2 abscesses greater than 1 inch in diameter and A+=abscesses greater than 2 inches in diameter, ruptured abscess, or adhesions to body wall. Yield grade and quality grade data were collected from the abattoir by a third party.
(§5) Continuous variables were analyzed using PROC Glimmix (SAS 9.4, SAS Inst. Inc., Cary, N.C.). Models contained treatment as a fixed effect, block as a random effect, and pen as the experimental unit. Least squares means were compared using the PDIFF function of SAS and the Tukey-Kramer adjustment for multiple comparisons. Statistical significance was determined at P<0.05 with tendencies at 0.06>P<0.10. Liver abscess scores, yield grade, and incidence of Eimeria spss. were converted to pen level frequency percentages prior to analysis.

Assay [3] has as its system Eimeria spp. Put plainly: 60 Day feeding study, qualitative fecal flotation for Eimeria. Format: in vivo. The note with it: fecal samples at 50 d of feed, samples positive for at least 1+ Eimeria. An excerpt: At 60 days of feed, 2-200 head pens were systematically allocated to 4 pens of 100 head. Two pens of 200 head were sorted at the chute into 4-100 head pens at time of terminal implant. Each 200 head pen contributed 50 head to each of the 4 pens that would be eventually allocated to treatment. This was accomplished by systematic allocation of 5 head at a time to each of the trial pens. If 200 head counts were not exactly 100 head/pen, the final allocations were that the number of animals per treatment group were similar. […]
Freshly voided fecal samples (n=10 per pen) were collected at 50 d of feed for fecal flotation to determine the presence of Eimeria spss. […] Qualitative fecal flotation measurements were measured on a scale of 1+ to 5+ with 1+ having <10 oocysts per slide, 3+ samples having 50-100 oocysts per slide, and 5+ having >500 oocysts/slide. This technique is considered semi-quantitative, with 3+ samples equivalent to approximately 50 oocysts/gram. […]
Continuous variables were analyzed using PROC Glimmix (SAS 9.4, SAS Inst. Inc., Cary, N.C.). […] Statistical significance was determined at P<0.05 with tendencies at 0.06>P<0.10. […]

The subject of assay [4] is liver abscesses. Description: 60 Day feeding study, liver abscess scores at slaughter. Format: in vivo, cattle (crossbred steers). As to conditions: 60 day study.
Text: as §1, §2, §3, §4, §5

With `CCCCCCCCCCOc1cc2c(O)c(C(=O)OCC)cnc2cc1OCC` [DECO, decoquinate], in assay [1] (60 day study), the “final body weight, rank among treatment groups” value was “intermediate” and the “growth performance compared with MT group” value is listed as “more similar to cattle in the MT group”. Further, the DMI in assay [1] (steers, average daily dry matter intake over 60-day period) is 12.1^a, b kg. The “Carcass adjusted G:F” value in assay [1] (steers, last 60 days on feed) came to 0.120 kg/kg. Further, the “Carcass adjusted ADG” value in assay [1] (steers, last 60 days on feed, pen basis) is on record as 1.47^a, b kg. Moreover, the “Carcass adjusted final BW” value in assay [1] (steers, treatment in ration for last 60 days, final BW = carcass weight/0.64) is 681.0^a, b kg. Further, in assay [2], the Dressing yield was 63.9^a, b % and the “HCW, rank among treatment groups” value was “intermediate”. Besides, in assay [2] (hot carcass weight), the HCW is given as 435.8^a, b kg. In assay [2] (quality grade), this compound registered a Choice of 83.5%, a Prime of 2.4%, a Select of 11.9% and a Standard of 2.1%. The YG1 in assay [2] (yield grade 1, pen level frequency) is reported as 7.0^a, c %. This compound displayed a YG2 in assay [2] (yield grade 2) of 33.8%. The compound also registered a YG3 in assay [2] (yield grade 3) of 40.8%. Moreover, the YG4 in assay [2] (yield grade 4) is recorded as 17.1%. Further, the YG5 in assay [2] (yield grade 5) was 1.3%. In assay [3], this compound gave an Eimeria spp. incidence of 5.0%. Moreover, in assay [4], the Total liver abscess was 31.4^a, b %. Moreover, the “incidence of liver abscesses compared with other groups” value in assay [4] (pairwise comparisons of least squares means) was “higher than cattle in the MT group, but lower than cattle in the NO MT group”. Besides, the A liver abscesses in assay [4] (A = 1-2 abscesses greater than 1 inch) came to 4.1%. The “A+ liver abscesses” value in assay [4] (A+ = abscesses greater than 2 inches, ruptured abscess or adhesions) was 19.68^a, b %. Moreover, the “A− liver abscesses” value in assay [4] (A− = 2-4 abscesses under 1 inch) came to 7.6%.
